Earlier results on one compound are cited in US6974665B2, “In situ screening to optimize variables in organic reactions” (University of Nebraska, priority 2001, dated 2005).

Data set [1] has as its target T1, cystathionine γ-synthase (Nicotiana tabacum, UniProt Q9ZPL5).
T1 sequence (Q9ZPL5 79-540): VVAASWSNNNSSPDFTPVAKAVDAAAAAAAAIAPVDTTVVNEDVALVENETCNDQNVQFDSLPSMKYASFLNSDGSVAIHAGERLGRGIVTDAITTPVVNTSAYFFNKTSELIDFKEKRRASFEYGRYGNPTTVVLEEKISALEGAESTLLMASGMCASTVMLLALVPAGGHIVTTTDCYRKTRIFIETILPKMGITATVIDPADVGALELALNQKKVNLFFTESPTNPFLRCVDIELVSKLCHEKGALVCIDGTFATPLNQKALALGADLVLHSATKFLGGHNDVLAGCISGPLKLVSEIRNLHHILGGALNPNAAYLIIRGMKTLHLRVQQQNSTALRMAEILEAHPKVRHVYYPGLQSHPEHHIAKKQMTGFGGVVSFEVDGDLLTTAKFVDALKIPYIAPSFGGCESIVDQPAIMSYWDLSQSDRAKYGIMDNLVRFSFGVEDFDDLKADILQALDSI
The conditions noted are these: tight-binding reversible inhibitor.

In data set [2] the target is T2, threonine synthase (Escherichia coli, UniProt P00934).
T2 sequence (P00934 1-428): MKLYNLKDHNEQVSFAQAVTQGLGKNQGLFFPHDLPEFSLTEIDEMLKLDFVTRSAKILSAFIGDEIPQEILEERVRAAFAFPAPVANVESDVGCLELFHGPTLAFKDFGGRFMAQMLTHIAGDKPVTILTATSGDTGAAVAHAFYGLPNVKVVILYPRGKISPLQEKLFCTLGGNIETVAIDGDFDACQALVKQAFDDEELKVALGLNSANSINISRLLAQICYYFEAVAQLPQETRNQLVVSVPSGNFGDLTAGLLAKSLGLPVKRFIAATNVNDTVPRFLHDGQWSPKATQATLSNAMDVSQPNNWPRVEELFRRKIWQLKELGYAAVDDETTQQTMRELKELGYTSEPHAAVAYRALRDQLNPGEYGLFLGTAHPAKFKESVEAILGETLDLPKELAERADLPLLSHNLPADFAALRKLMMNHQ
The conditions noted are these: irreversible inhibitor.

With `NC(/C=C/CP(=O)(O)O)C(=O)O` (stereo not drawn) [APPA, (E)-2-Amino-5-phosphono-3-pentenoic Acid], in data set [1], the Ki was 27 µM. Also, in data set [2], the Ki is 400 µM and the kinact was 0.25 min⁻¹.
